Experimental data as given in publication PMC12030627, “Radioiodinated Bicyclic RGD Peptide Derivatives for Enhanced Tumor Accumulation” (Pharmaceuticals, 2025).
“And” between values parts separate entries of the source, which are not always exact repeats. Identical values can stand only once. Starred links: 1 amine or outer side, 2 acyl side, 3 side chain; linkers in the order of their positions; H or OH if unused. Positions of bridges follow the written chain, without caps; N, C: chain ends. Non-standard residues stand in square brackets, D forms with d. Residues, ends and D or L forms follow the SMILES beside them. *: point of attachment. Butanoyl(4-(4-I-phenyl)) = O=C(CCCc1ccc(I)cc1)*; TBMB = c1c(C[*:1])cc(C[*:3])cc1C[*:2]; Palmitoyl = CCCCCCCCCCCCCCCC(=O)*; Benzoyl(3-I) = O=C(c1cccc(I)c1)*; 4Abz = Nc1ccc(C(=O)O)cc1

Tests used:
His-tagged integrin αVβ3 = target: T1, His-tagged integrin αVβ3 (Homo sapiens, UniProt P05106+P06756); experiment: In vitro selectivity assay, His-tag Dynabeads pulldown, integrin αVβ3; format: binding; conditions: for Radioactivity accumulation in αVβ3 protein: 10 kBq probe, 10 pmol His-tagged integrin, 37 °C 2 h, pH 7.4 buffer, without cyclo-(RGDfK); for Radioactivity accumulation in αVβ3 protein with cyclo-(RGDfK) blocking versus free: cyclo-(RGDfK) 25 μM preincubated 30 min at 37 °C, 2 h incubation, unpaired t-test p < 0.001
T1 construct: purchased ACRO Biosystems IT3-H52E3
T1 sequence (P06756 31-992 limits assumed): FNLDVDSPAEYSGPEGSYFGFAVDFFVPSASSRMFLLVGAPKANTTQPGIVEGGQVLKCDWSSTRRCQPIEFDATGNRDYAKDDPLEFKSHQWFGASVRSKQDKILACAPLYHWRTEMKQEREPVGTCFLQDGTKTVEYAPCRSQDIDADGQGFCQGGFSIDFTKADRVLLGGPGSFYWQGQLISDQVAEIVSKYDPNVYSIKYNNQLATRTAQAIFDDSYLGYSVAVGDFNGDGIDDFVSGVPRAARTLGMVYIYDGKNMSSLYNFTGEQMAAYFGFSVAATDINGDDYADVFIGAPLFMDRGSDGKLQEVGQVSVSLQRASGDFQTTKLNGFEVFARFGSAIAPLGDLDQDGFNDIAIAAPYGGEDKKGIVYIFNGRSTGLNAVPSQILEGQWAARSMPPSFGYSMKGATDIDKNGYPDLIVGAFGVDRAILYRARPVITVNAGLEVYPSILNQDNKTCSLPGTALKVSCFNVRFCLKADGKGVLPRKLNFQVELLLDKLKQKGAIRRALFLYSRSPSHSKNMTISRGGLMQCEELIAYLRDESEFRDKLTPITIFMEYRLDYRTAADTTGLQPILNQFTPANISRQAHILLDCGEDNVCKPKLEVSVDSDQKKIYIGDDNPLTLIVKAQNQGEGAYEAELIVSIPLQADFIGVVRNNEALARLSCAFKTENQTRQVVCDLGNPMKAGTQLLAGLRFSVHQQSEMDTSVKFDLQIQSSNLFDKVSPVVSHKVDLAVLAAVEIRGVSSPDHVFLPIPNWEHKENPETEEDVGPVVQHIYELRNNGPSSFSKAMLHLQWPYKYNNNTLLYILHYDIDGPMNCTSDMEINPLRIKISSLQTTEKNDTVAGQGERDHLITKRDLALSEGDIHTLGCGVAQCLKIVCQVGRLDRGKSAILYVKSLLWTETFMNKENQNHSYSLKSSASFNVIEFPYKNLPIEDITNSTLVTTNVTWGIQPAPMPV
T1 sequence (P05106 27-718 limits assumed): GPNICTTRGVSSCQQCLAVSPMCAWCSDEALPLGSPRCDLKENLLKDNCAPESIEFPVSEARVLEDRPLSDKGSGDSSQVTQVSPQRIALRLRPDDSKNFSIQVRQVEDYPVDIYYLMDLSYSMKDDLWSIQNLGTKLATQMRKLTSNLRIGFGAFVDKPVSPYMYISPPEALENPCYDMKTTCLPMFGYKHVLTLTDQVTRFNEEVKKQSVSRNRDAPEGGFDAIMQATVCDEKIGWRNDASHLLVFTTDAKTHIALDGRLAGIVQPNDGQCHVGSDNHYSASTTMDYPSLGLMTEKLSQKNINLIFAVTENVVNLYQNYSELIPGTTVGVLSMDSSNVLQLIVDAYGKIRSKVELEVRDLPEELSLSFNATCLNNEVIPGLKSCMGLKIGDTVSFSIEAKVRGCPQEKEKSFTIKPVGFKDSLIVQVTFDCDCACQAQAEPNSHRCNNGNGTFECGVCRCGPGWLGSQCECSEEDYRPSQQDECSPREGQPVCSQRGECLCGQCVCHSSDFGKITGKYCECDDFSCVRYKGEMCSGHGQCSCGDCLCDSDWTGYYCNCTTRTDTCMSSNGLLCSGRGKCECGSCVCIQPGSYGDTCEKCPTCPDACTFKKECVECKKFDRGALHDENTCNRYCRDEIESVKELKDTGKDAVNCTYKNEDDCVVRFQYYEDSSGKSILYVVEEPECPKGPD
Procedure: (§1) Binding assays were conducted following our previously reported method, using the Dynabeads™ His-Tag Isolation and Pulldown protocol (Thermo Fisher Scientific, Tokyo, Japan). Briefly, [^125I]bcRGDpal or [^125I]bcRGDiba (10 kBq/sample) was incubated at 37 °C for 2 h in 200 μL of incubation buffer (3.25 mM sodium phosphate, 70 mM NaCl, 0.01% Tween 20, pH 7.4) with 10 pmol of His-tagged integrin αVβ3, αVβ5, or α5β1 proteins (αVβ3: IT3-H52E3, ACRO Biosystems, Newark, DE, USA; αVβ5: 2528-AV, R&D Systems, Minneapolis, MN, USA; α5β1: CT014-H2508H, Sino Biological, Beijing, China). For the inhibition group, cyclo(RGDfK) (25 μM, S7834, Selleck, Houston, TX, USA) was preincubated with the integrin protein for 30 min at 37 °C. Next, A 2× binding buffer (100 mM sodium phosphate, 600 mM NaCl, 0.01% Tween 20, pH 8.0) was mixed with the solution at a 1:1 volume ratio and incubated with 5 μL of magnetic beads at 37 °C for 10 min to enable protein immobilization. Following immobilization, the beads were rinsed three times with the binding buffer, and radioactivity was measured using a NaI well-type scintillation counter (2480 Wizard2; PerkinElmer Japan, Yokohama, Japan). Protein binding was expressed as %dose/nmol protein.

His-tagged integrin α5β1 = target: T2, His-tagged integrin α5β1 (Homo sapiens, UniProt P05556+P08648); experiment: In vitro selectivity assay, His-tag Dynabeads pulldown, integrin α5β1; format: binding; conditions: cyclo-(RGDfK) 25 μM blocking; 2 h incubation at 37 °C
T2 construct: purchased Sino Biological CT014-H2508H
T2 sequence (P08648 42-995 limits assumed): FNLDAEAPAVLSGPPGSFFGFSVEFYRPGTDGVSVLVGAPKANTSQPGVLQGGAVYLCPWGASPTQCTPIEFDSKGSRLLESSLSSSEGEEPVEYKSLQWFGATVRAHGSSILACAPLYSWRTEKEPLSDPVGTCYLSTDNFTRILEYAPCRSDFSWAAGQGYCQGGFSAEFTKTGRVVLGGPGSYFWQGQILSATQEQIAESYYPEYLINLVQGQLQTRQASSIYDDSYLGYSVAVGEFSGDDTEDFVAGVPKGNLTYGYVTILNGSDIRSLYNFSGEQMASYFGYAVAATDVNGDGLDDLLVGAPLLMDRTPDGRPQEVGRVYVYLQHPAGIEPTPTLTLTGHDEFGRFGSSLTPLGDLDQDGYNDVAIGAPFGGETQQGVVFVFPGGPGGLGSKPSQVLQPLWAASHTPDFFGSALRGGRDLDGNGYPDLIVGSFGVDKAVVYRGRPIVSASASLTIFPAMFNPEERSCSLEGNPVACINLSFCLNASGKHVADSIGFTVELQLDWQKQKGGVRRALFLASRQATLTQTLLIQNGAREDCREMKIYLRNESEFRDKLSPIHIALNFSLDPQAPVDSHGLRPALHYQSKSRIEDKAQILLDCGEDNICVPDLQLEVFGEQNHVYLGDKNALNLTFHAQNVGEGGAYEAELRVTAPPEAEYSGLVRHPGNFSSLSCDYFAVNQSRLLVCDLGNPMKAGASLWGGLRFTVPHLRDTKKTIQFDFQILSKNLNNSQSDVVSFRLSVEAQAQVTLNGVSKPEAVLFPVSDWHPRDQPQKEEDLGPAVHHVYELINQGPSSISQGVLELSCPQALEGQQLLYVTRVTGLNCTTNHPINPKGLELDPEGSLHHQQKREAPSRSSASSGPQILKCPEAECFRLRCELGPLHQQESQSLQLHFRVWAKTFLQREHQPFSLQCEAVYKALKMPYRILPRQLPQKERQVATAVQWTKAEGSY
T2 sequence (P05556 21-728 limits assumed): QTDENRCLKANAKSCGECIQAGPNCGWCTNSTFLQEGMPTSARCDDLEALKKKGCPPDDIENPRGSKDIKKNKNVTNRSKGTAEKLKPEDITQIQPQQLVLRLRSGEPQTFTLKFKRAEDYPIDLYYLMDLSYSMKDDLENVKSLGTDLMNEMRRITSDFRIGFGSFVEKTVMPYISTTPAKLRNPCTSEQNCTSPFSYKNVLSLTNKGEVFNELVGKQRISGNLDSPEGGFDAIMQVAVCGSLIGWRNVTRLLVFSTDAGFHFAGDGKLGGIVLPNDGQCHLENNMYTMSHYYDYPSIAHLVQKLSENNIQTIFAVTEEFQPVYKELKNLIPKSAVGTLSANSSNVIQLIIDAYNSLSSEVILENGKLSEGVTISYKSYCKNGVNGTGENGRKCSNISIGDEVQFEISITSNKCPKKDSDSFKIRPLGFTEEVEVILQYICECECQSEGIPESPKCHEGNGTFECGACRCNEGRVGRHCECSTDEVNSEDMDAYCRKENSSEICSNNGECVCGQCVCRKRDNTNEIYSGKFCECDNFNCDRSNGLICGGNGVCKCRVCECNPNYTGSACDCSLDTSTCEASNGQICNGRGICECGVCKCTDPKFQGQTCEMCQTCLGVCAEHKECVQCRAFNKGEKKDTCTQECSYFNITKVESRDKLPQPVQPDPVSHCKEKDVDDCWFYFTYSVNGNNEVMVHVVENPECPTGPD
Procedure: as §1

[1] = Octanol–water distribution coefficient (log D); format: physicochemical; conditions: shake-flask 1-octanol/PBS(–) pH 7.4, 1.0 mL each (1:1), 40 kBq, vortexed 2 min, centrifuged 5000 rpm 5 min, radioactivity by γ-counter, mean of n = 4
Procedure: For log D determination, [^125I]bcRGD, [^125I]bcRGDpal, [^125I]bcRGDiba, or [^125I]bcRGDdimer (40 kBq) was dissolved in 1.0 mL PBS(–) (pH 7.4) and mixed with 1.0 mL 1-octanol (1:1, v/v). The mixture was vortexed for 2 min and centrifuged at 5000 rpm for 5 min. Radioactivity in 0.5 mL of each phase was measured using a γ-counter, and log D values were calculated based on the radioactivity distribution (n = 4).

[2] = Albumin binding, size-exclusion spin column elution after incubation with mouse plasma; format: in vitro ADME; conditions: 37 kBq in 50 μL PBS(–) incubated 37 °C 10 min with 200 μL mouse plasma (male ddY); Sephadex G-50 Fine spin column, 2000 rpm 2 min; γ-counter; eluted/added radioactivity × 100
Procedure: (§2) To assess albumin binding, mouse plasma was obtained by centrifugation of whole blood from male ddY mice (9 weeks old). [^125I]bcRGD, [^125I]bcRGDpal, [^125I]bcRGDiba, or [^125I]bcRGDdimer (37 kBq) in 50 μL PBS(–) was incubated at 37 °C for 10 min with 200 μL of PBS(–), mouse plasma, or human serum albumin (HSA, 45 mg/mL in PBS(–); Wako Pure Chemical Industries, Osaka, Japan). The mixtures were applied to gel filtration spin columns (Sephadex G-50 Fine; Cytiva, Tokyo, Japan), centrifuged (2000 rpm, 2 min), and radioactivity in the eluted fraction was measured with a γ-counter. The high molecular weight fraction was calculated as the elution ratio = (radioactivity in elution)/(added radioactivity) × 100 (%).

[3] = target: T3, human serum albumin (HSA) (Homo sapiens, UniProt P02768); experiment: Albumin binding, size-exclusion spin column elution after incubation with HSA; format: in vitro ADME; conditions: 37 kBq in 50 μL PBS(–) incubated 37 °C 10 min with 200 μL HSA 45 mg/mL in PBS(–); Sephadex G-50 Fine spin column, 2000 rpm 2 min; γ-counter; eluted/added radioactivity × 100
T3 construct: purchased Wako Pure Chemical Industries
T3 sequence (P02768 25-609): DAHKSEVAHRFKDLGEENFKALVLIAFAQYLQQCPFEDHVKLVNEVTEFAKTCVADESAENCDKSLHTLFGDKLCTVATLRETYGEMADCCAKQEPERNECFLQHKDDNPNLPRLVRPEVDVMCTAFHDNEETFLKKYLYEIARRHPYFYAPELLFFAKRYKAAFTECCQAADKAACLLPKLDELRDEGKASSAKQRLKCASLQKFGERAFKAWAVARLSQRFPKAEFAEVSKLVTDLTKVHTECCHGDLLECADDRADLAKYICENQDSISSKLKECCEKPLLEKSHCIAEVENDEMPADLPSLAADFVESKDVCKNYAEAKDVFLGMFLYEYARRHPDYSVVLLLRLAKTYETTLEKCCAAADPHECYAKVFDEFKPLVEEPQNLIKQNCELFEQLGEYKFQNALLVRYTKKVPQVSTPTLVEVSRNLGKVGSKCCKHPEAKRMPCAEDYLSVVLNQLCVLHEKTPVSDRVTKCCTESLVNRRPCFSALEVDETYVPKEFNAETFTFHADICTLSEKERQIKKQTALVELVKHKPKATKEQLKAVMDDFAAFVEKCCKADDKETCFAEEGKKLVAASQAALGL
Procedure: as §2

SMILES | Radioactivity accumulation in αVβ3 protein (His-tagged integrin αVβ3) | Radioactivity accumulation in αVβ3 protein with cyclo-(RGDfK) blocking versus free (His-tagged integrin αVβ3) | Radioactivity accumulation in α5β1 protein, treatment versus inhibitor group (His-tagged integrin α5β1) | logD [1] | Elution rate from size-exclusion resin (high molecular weight fraction), mouse plasma [2] | Elution rate from size-exclusion resin (high molecular weight fraction), HSA [3]
CCCCCCCCCCCCCCCC(=O)N[C@@H](CCCCNC(=O)c1cccc(I)c1)C(=O)N1CCC[C@H]1C(=O)N1CCC[C@H]1C(=O)N1CCC[C@H]1C(=O)N[C@@H](CO)C(=O)NCC(=O)Nc1ccc(C(=O)N[C@@H](CO)C(=O)NCC(=O)N[C@H]2CSCc3cc4cc(c3)CSC[C@@H](NC(=O)[C@H](CCC(N)=O)NC(=O)[C@@H]3CCCN3C(=O)[C@H](Cc3c[nH]cn3)NC2=O)C(=O)N[C@@H](CCCNC(=N)N)C(=O)NCC(=O)N[C@@H](CC(=O)O)C(=O)N[C@@H](C(N)=O)CSC4)cc1 [[^125I]bcRGDpal] (Palmitoyl-K(Benzoyl(3-I))PPPSG[4Abz]SGCHPQ[dC]RGD[dC]-NH2; linker 10-14-18 via TBMB) | high radioactivity accumulation | significantly inhibited | No differences | 1.71 and > 1 | > 80% | 80%
N=C(N)NCCC[C@@H]1NC(=O)[C@H]2CSCc3cc(cc(c3)CSC[C@H](C(N)=O)NC(=O)[C@H](CC(=O)O)NC(=O)CNC1=O)CSC[C@H](NC(=O)CNC(=O)[C@H](CO)NC(=O)c1ccc(NC(=O)CNC(=O)[C@H](CO)NC(=O)[C@@H]3CCCN3C(=O)[C@@H]3CCCN3C(=O)[C@@H]3CCCN3C(=O)[C@H](CCCCNC(=O)c3cccc(I)c3)NC(=O)CCCc3ccc(I)cc3)cc1)C(=O)N[C@@H](Cc1c[nH]cn1)C(=O)N1CCC[C@H]1C(=O)N[C@@H](CCC(N)=O)C(=O)N2 [[^125I]bcRGDiba] ({Butanoyl(4-(4-I-phenyl))}-K(Benzoyl(3-I))PPPSG[4Abz]SGCHPQ[dC]RGD[dC]-NH2; linker 10-14-18 via TBMB) | high radioactivity accumulation | significantly inhibited | No differences | -0.97 | > 80% | 60%
N=C(N)NCCC[C@@H]1NC(=O)[C@H]2CSCc3cc(cc(c3)CSC[C@H](C(N)=O)NC(=O)[C@H](CC(=O)O)NC(=O)CNC1=O)CSC[C@H](NC(=O)CNC(=O)[C@H](CO)NC(=O)c1ccc(NC(=O)CNC(=O)[C@H](CO)NC(=O)[C@@H]3CCCN3C(=O)[C@@H]3CCCN3C(=O)[C@@H]3CCCN3C(=O)CCc3cn(CC[C@H](NC(=O)CCNC(=O)c4cccc(I)c4)C(=O)N4CCC[C@H]4C(=O)N4CCC[C@H]4C(=O)N4CCC[C@H]4C(=O)N[C@@H](CO)C(=O)NCC(=O)Nc4ccc(C(=O)N[C@@H](CO)C(=O)NCC(=O)N[C@H]5CSCc6cc7cc(c6)CSC[C@@H](NC(=O)[C@H](CCC(N)=O)NC(=O)[C@@H]6CCCN6C(=O)[C@H](Cc6c[nH]cn6)NC5=O)C(=O)N[C@@H](CCCNC(=N)N)C(=O)NCC(=O)N[C@@H](CC(=O)O)C(=O)N[C@@H](C(N)=O)CSC7)cc4)nn3)cc1)C(=O)N[C@@H](Cc1c[nH]cn1)C(=O)N1CCC[C@H]1C(=O)N[C@@H](CCC(N)=O)C(=O)N2 [[^125I]bcRGDdimer] | – | – | – | -1.98 | 22% | 6%
